Patent publication US8207150B2, “17β-cyano-19-nor-androst-4-ene derivative, its use and medicaments comprising the derivative” (Bayer Pharma AG, priority 2007, dated 2012)
Values joined by “and” are separate entries in the source; they are usually repeats but may differ in a detail not shown here. Equal values may be shown once. Read-outs that look alike come from different tables or passages of the source.

Legend:
PR = molecular target: T1, PR (Rattus norvegicus, UniProt Q63449); assay: maintenance of pregnancy test on the rat; format: in vivo; details: ovarectomized pregnant rats; for PR in vivo ED50: pregnancy-maintaining dose, s.c. once daily with oestrone 5 μg/kg/day
T1 construct: The maintenance of pregnancy test on ovarectomized rats serves for the determination of the peripheral gestagenic activity of a compound; from tissue; host or cells: whole animal: pregnant, ovariectomized rats
T1 sequence (Q63449 1-923): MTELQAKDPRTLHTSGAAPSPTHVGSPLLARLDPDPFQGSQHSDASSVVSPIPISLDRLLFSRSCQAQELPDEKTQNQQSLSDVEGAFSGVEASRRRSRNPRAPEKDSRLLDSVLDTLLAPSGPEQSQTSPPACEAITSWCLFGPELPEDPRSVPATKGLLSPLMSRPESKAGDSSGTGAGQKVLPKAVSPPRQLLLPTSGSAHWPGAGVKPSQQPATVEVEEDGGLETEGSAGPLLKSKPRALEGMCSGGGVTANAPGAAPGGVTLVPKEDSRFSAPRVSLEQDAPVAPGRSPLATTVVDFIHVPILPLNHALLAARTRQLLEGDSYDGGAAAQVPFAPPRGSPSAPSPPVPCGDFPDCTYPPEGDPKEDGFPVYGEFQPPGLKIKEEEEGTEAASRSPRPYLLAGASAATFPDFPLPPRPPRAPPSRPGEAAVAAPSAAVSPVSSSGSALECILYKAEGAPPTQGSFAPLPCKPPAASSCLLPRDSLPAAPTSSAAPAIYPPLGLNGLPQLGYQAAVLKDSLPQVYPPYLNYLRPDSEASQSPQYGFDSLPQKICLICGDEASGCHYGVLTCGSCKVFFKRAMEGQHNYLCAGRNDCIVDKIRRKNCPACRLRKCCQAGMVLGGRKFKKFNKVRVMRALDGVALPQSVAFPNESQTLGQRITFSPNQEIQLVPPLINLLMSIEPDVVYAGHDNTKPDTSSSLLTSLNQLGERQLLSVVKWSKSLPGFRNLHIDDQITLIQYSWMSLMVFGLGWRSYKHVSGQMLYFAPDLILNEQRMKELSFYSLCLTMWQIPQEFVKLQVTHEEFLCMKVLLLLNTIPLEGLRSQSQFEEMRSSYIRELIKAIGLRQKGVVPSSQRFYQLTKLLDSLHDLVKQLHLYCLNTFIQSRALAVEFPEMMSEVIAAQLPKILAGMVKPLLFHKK
Text: Carrying out the maintenance of pregnancy test on the rat:
In pregnant rats, the removal of the corpora lutea or oophorectomy induces an abortion. By means of the exogenous administration of progestins (gestagens) in combination with a suitable dose of an oestrogen, the maintenance of pregnancy is possible. The maintenance of pregnancy test on ovarectomized rats serves for the determination of the peripheral gestagenic activity of a compound.
Rats were paired overnight during proestrus. Pairing was checked on the morning of the following day by the appraisal of a vaginal smear. The presence of the sperm was evaluated here as day 1 of a commencing pregnancy. On day 8 of the pregnancy, the animals were ovarectomized under ether anaesthesia. The treatment with test compound and exogenous oestrogen (oestrone, 5 μg/kg/day) was carried out subcutaneously once daily from day 8 to day 15 or day 21 of the pregnancy. The first administration on day 8 was carried out two hours before oophorectomy. Intact control animals were given exclusively vehicle.
At the end of the experiment (day 15 or day 21), the animals were sacrificed under a CO2 atmosphere, and live foetuses (foetuses having a beating heart) and implantation sites (early resorptions and dead foetuses including autolysis and atrophic placentas) were counted in both uterine horns. On day 22, it was moreover possible to examine foetuses for malformations. In uteri without foetuses or implantation sites, the number of nidation sites was determined by staining with 10% strength ammonium sulphide solution. The maintenance of pregnancy rate was calculated as the quotient of the number of living foetuses and the total number of nidation sites (both resorbed and dead foetuses and nidation sites). For drospirenone, this value is 3.5 mg/kg/day.

[1] = molecular target: T2, mineralcorticoid receptor (Homo sapiens, UniProt P08235); assay: MR antagonism, luciferase reporter cell line assay; format: cell-based; details: 16 hours incubation, luminescence
T2 sequence (P08235 1-984): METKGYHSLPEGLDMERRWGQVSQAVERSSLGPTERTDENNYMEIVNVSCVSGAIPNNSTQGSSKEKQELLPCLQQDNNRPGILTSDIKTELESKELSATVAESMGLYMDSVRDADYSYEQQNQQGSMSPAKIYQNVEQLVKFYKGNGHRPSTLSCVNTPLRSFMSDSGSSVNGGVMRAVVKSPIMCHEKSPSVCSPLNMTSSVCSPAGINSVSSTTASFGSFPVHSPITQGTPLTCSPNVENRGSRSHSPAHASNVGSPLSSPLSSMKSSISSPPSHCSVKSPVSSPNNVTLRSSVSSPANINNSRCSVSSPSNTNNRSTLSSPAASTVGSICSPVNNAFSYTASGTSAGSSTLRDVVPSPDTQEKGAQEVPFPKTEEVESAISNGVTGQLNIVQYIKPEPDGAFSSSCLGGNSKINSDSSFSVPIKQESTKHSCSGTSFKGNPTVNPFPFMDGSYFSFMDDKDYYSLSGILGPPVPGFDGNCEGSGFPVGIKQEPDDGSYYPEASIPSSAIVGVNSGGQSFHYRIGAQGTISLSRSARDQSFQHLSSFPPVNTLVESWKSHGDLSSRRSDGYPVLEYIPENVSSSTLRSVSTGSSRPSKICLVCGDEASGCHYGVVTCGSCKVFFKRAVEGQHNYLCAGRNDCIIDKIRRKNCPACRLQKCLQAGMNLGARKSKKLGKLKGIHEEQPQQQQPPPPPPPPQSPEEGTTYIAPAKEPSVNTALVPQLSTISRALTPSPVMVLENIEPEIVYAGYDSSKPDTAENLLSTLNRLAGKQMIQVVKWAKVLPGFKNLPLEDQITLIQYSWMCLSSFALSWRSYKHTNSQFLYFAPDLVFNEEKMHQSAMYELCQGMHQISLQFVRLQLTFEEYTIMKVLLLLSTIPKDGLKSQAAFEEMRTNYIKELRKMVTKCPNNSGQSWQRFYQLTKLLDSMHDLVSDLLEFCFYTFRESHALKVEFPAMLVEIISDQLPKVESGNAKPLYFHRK
Method: The derivatives according to the invention having the general chemical formula 1 have a very strong gestagenic activity. […] They should therefore have in vivo potassium-retaining, natriuretic (antimeralcorticoid) action. These properties were determined using the test described below:
For the culturing of the cells used for the assay, the culture medium used was DMEM (Dulbecco's Modified Eagle Medium: […] of glucose; PAA, #E15-009) with 10% FCS (Biochrom, S0115, batch #615B), 4 mM L-glutamine, 1% penicillin/streptomycin, 1 mg/ml of G418 and 0.5 μg/ml of puromycin.
Reporter cell lines were grown in a density of 4×10^4 cells per hollow in white, nontransparent tissue culture plates in each case having 96 hollows (PerkinElmer, #P12-106-017) and kept in 6% DCC—FCS (activated carbon-treated serum, for the removal of interfering components contained in the serum). The compounds to be investigated were added eight days later, and the cells were incubated with the compounds for 16 hours. The experiments were carried out in triplicate. At the end of the incubation, the effector-containing medium was removed and replaced by lysis buffer. After luciferase assay substrate (promega, #E1501) had been added, the plates containing the 96 hollows were then introduced into a microplate luminometer (Pherastar, BMG labtech), and the luminescence was measured. The IC50 values were evaluated using software for the calculation of dose-activity relationships.

[2] = reporter cell lines, read-out: MR Antagonism IC50
[3] = MR Antagonism IC50, reporter cell lines

SMILES: C[C@]12CCC(=O)C=C1[C@@H]1C[C@@H]1[C@H]1[C@@H]3[C@@H]4C[C@@H]4[C@@]4(CCC(=O)O4)[C@@]3(C)CC[C@@H]12 [drospirenone, 6β,7β-15β,16β-dimethylene-3-oxo-17-pregn-4-ene-21,17β-carbolactone, reference compound]
- pregnancy-maintaining dose (ED50) (PR; subcutaneously once daily with oestrone 5 μg/kg/day): 3.5 mg/kg/day

SMILES: C[C@]1(C#N)[C@H]2C[C@H]2[C@H]2[C@@H]3C=CC4=CC(=O)CC[C@@H]4[C@H]3CC[C@@]21C [17β-Cyano-17α-methyl-15β,16β-methylene-19-nor-androsta-4,6-dien-3-one]
- MR Antagonism activity [% of the maximum effect] ([1]; reporter cell lines): 114 % of the maximum effect
- IC50 [1, 2]: 190 nM
- PR in vivo ED50 (PR): 2.1 mg/kg/d s.c.

SMILES: C[C@]12CC[C@H]3[C@@H](CCC4=CC(=O)CC[C@@H]43)[C@@H]1[C@H]1C[C@H]1[C@@H]2C#N [17β-Cyano-15α,16α-methylene-19-nor-androst-4-en-3-one]
- MR Antagonism activity [% of the maximum effect] ([1]; reporter cell lines): 93.01 % of the maximum effect
- IC50 [1, 2]: 16 nM
- PR in vivo ED50 (PR): 0.8 mg/kg/d s.c.

SMILES: C[C@@H]1CC2=CC(=O)CC[C@@H]2[C@H]2CC[C@]3(C)[C@@H](C#N)CC[C@H]3[C@@H]21 [17β-Cyano-7α-methyl-19-nor-androst-4-en-3-one]
- MR Antagonism activity [% of the maximum effect] ([1]; reporter cell lines): 108.02 % of the maximum effect
- IC50 [1, 2]: 8.2 nM
- PR in vivo ED50 (PR): 0.33 mg/kg/d s.c.

SMILES: C[C@]12CC[C@H]3[C@@H](C=CC4=CC(=O)CC[C@@H]43)[C@@H]1[C@@H]1C[C@@H]1[C@@H]2C#N [17β-Cyano-15β,16β-methylene-19-nor-androsta-4,6-dien-3-one]
- MR Antagonism activity [% of the maximum effect] ([1]; reporter cell lines): 108.51 % of the maximum effect
- IC50 [1, 2]: 15 nM
- PR in vivo ED50 (PR): 3.3 mg/kg/d s.c.

SMILES: C[C@@H]1CC2=CC(=O)CC[C@@H]2[C@H]2CC[C@@]3(C)[C@@H]([C@@H]4C[C@@H]4[C@@H]3C#N)[C@@H]21 (single isomer, unassigned) [17β-Cyano-15β,16β-methylene-7α-methyl-19-nor-androst-4-en-3-one]
- IC50 [1, 3]: 8.3 nM and 10.3 nM

SMILES: CC[C@]1(C#N)[C@H]2C[C@H]2[C@H]2[C@@H]3[C@@H]4C[C@@H]4C4=CC(=O)CC[C@@H]4[C@H]3CC[C@@]21C (single isomer, unassigned) [17β-cyano-17α-ethyl-6α,7α-methylene-15β,16β-methylene-19-nor-androst-4-en-3-one]
- IC50 [1, 3]: 90.2 nM
- PR in vivo ED50 (PR): 0.22 mg/kg/d s.c.

SMILES: C[C@]1(C#N)[C@H]2C[C@H]2[C@H]2[C@@H]3CCC4=CC(=O)CC[C@@H]4[C@H]3CC[C@@]21C [17β-Cyano-17α-methyl-15β,16β-methylene-19-nor-androst-4-en-3-one]
- MR Antagonism activity [% of the maximum effect] ([1]; reporter cell lines): 96.00 % of the maximum effect
- IC50 [1, 2]: 29 nM
- PR in vivo ED50 (PR): 0.8 mg/kg/d s.c.

SMILES: C[C@@H]1CC2=CC(=O)CC[C@@H]2[C@H]2CC[C@@]3(C)[C@@H](CC[C@]3(C)C#N)[C@@H]21 [17β-Cyano-7α,17α-bismethyl-19-nor-androst-4-en-3-one]
- IC50 [1, 3]: 31 nM
- MR Antagonism activity [% of the maximum effect] ([1]; reporter cell lines): 96.20 % of the maximum effect
- PR in vivo ED50 (PR): 1 .0 mg/kg/d s.c.

SMILES: CC[C@]1(C#N)[C@H]2C[C@H]2[C@H]2[C@@H]3CCC4=CC(=O)CC[C@@H]4[C@H]3CC[C@@]21C [17β-Cyano-17α-ethyl-15β,16β-methylene-19-nor-androst-4-en-3-one]
- MR Antagonism activity [% of the maximum effect] ([1]; reporter cell lines): 106.4 % of the maximum effect
- IC50 [1, 2]: 440 nM
- PR in vivo ED50 (PR): 1.9 mg/kg/d s.c.

SMILES: C[C@]12CC[C@H]3[C@@H](CCC4=CC(=O)CC[C@@H]43)[C@@H]1[C@@H]1C[C@@H]1[C@@H]2C#N [17β-Cyano-15β,16β-methylene-19-nor-androst-4-en-3-one]
- MR Antagonism activity [% of the maximum effect] ([1]; reporter cell lines): 95.57 % of the maximum effect
- IC50 [1, 2]: 4.5 nM
- PR in vivo ED50 (PR): 0.84 mg/kg/d s.c.
